Results taken from patent publication US20080206149A1, “METHOD, DYE AND MEDICAMENT FOR STAINING THE INTERNAL LIMITING MEMBRANE, EPIRETINAL MEMBRANE, THE VITREOUS AND/OR THE CAPSULE OF AN EYE” (LUDWIG-MAXIMILIANS-UNIVERSITAT MUNCHEN, priority 2005, published 2008).

Experiments:
[1] = tested on: lens capsule; assay: Staining of lens capsule removed during intraocular surgery; settings: concentrations of 0.5% or less; dye removed after one minute
Method: (§1) The following four dyes were examined as examples for the inventive dyes in the present study: Light green yellowish SF (LG SF), E68, Bromophenol blue (BPB) and Chicago blue (CB). ICG (Pulsion, Munich, Germany) was used as a reference. All dyes were dissolved and diluted with balanced salt solution (BSS plus; Alcon Laboratories Inc., Fort Worth, Tex.) and concentrations of 1.0, 0.5, 0.2 and 0.05% were obtained. Dry ICG powder was first dissolved with sterile water provided by the manufacturer resulting in a 0.5% solution and then further diluted using BSS plus to a concentration of 0.05%. The dyes were then used to stain lens capsule and epiretinal membranes removed during intraocular surgery. Immediately after removal, the material was placed on a glass slide and covered with a few drops of the dye. After one minute, the dye was carefully removed by irrigation using BSS plus. Lens capsule and epiretinal tissue was then evaluated macroscopically and using light microscopy. The staining effect was subjectively graded as “excellent, good, fair or absent” by one unmasked person and photographs were taken.

[2] = tested on: epiretinal membranes (ERM); assay: Staining of epiretinal membranes removed during intraocular surgery; settings: concentration of 1%; dye removed after one minute
Method: as §1

[3] = tested on: lens capsule; assay: Staining of the lens capsule in enucleated porcine eyes; settings: injected into air-filled anterior chamber, removed after one minute; clear porcine lens as background
Method: Additionally, the staining characteristics of the lens capsule in enucleated porcine eyes with a postmortem time of nine hours were evaluated. The dyes were injected into the air-filled anterior chamber and removed by irrigation after one minute. Then, the cornea was removed and a capsulorhexis was performed with a bent needle. All procedures were taped on video.

[4] = Light absorbing properties (UV/VIS/NIR spectrometer); assay type: physicochemical; settings: measured up to a content of 0.05% dye
Method: Light absorption was measured in 0.05% solutions, with BSS plus as a solvent medium. Light absorption was measured instantly after preparation of a stock solution of the dye using a UV/VIS/NIR Spectrometer (Lambda 900, Perkin Elmer) between 200 and 1000 nm.

[5] = tested on: ARPE-19 cells; assay: Life-dead assay (propidium iodide / Hoechst 33342), ARPE-19 cells; assay type: cell-based
Method: (§2) Confluent RPE and ARPE-19 cells were prepared and treated as described above. Cell viability was quantified based on a two-color fluorescence assay in which the nuclei of nonviable cells appear red because of staining by the membrane-impermeable dye propidium iodide (Sigma), whereas the nuclei of all cells were stained with the membrane-permeable dye Hoechst 33342 (Intergen, Purchase, N.Y.). […] For evaluation of cell viability, cells were washed in PBS and incubated with 2.0 μg/mL propidium iodide and 1.0 μg/mL Hoechst 33342 for 20 minutes at 37° C. Subsequently, cells were analyzed with an epifluorescence microscope (Axioskop; Zeiss, Göttingen, Germany). The labeled nuclei were then counted in fluorescence photomicrographs, and dead cells were expressed as a percentage of total nuclei in the field. The data are based on counts from three experiments performed in duplicate wells, with three to five documented representative fields per well.

[6] = tested on: primary RPE cells; assay: Life-dead assay (propidium iodide / Hoechst 33342), primary RPE cells; assay type: cell-based
Method: Invest Ophthalmol Vis Sci 2002; 43: 3575-82.
as §2

[7] = tested on: vitreous; assay: Staining of the vitreous during pars plana vitrectomy in porcine eyes; assay type: in vivo; settings: graded by two examiners
Method: All dyes were dissolved and diluted using balanced salt solution (BSS plus; Alcon Laboratories Inc., Fort Worth, Tex).
Experiments were performed in animals (porcine eyes) and humans after approval of the local ethics committee had been obtained. All experiments were performed in compliance with the Declaration of Helsinki.
Ophthalmic surgery consisted of a standard pars plana vitrectomy. First, the transparent vitreous was removed as completely as possible. Then fluid air exchange was performed in order to avoid an uncontrolled distribution of the dye in the vitreous cavity. The dye was then injected into the air filled globe. After a period of one minute, the dye was washed out by irrigation with BSS. This was followed by an injection of the dye in concentrations from 0.2% to 2%. The staining of the vitreous was graded by two examiners who also performed the surgical procedures.

[8] = tested on: ARPE-19 cells; assay: MTT assay, ARPE-19 cells; settings: 0.2% and 0.02% dye, 10 minutes exposure, compared to BSS plus control
Method: ARPE-19 cells, a human retinal pigment epithelial cell line (42), were purchased from ATCC (Manassas, Va., USA) and grown in a 1:1 mixture of Dulbecco's modified Eagles medium and Ham's F12 medium (DMEM/Ham's F12, Biochrom), supplemented with 10% FCS (Biochrom).
For exposure of dyes RPE and ARPE-19 cells were kept for 24 hours under serum free conditions. After washing cells three times with PBS, cells were incubated for 10 minutes with 300 μl of BSS plus containing 0.2% or 0.02% of dye, respectively. […] The dye was then removed by carefully rinsing cells with BSS plus three times. After 24 hours incubation with serum containing media the cell proliferation assay was performed. RPE cells (p3-6) were seeded in 24-well plates and exposed to two concentrations (0.2 and 0.02%) of dyes. BSS plus alone and H2O2, (200 μL/mL) served as controls.
The tetrazolium dye-reduction assay (MTT; 3-[4,5-dimethylthiazol-2-yl]-2,5-diphenyl tetrazolium bromide;) was used to determine cell survival rate. […] The medium was removed, cells were washed with PBS, and 1000 μL/well MTT solution (1.5 mL MTT stock, 2 mg/mL in PBS, plus 28.5 mL DMEM) was added. RPE cells were incubated at 37° C. for 1 hour. The formazan crystals that formed were dissolved by the addition of dimethyl sulfoxide (DMSO; 1000 μL/well). Absorption was measured by a scanning multiwell spectrophotometer at 550 nm (Molecular Probes, Garching, Germany). […] Experiments were performed in triplicate and repeated three times. RPE and ARPE-19 cells of the same passage incubated with BSS without addition of dyes served as control. Statistical comparison between dye concentrations was performed with SPSS (Mann-Whitney-U-Test).
The MTT test as performed in this study is a well established test for the assessment of cell viability, but relies on calorimetric measurement of a blue (550 nm) formazan reaction product. This color overlaps with the absorption spectra of some of the dyes tested. […] Cell monolayers were treated with dyes as per the experiments described above but absorbance readings were performed without prior application of MTT. […]

[9] = tested on: primary RPE cells; assay: MTT assay, primary RPE cells; settings: 0.2% and 0.02% dye, 10 minutes exposure, compared to BSS plus control
Excerpt: In brief, whole eyes were thoroughly cleansed in 0.9% NaCl solution, immersed in 5% polyvinyl pyrrolidone iodine, and rinsed again in the sodiumchloride solution. The anterior segment from each donor eye was removed and the posterior poles were examined with the aid of a binocular stereomicroscope to confirm the absence of gross retinal disease. Next, the neural retinas were carefully peeled away from the RPE-choroid-sclera using fine forceps. The eye cup was rinsed with Ca^2+ and Mg^2+-free Hank's balanced salt solution, and filled with 0.25% trypsin (GIBCO, Karlsruhe, Germany) for 30 min at 37° C. The trypsin was carefully aspirated and replaced with Dulbecco's modified eagles medium (DMEM, Biochrom, Berlin, Germany) supplemented with 20% fetal calf serum (FCS, Biochrom). Using a pipette, the media was gently agitated, releasing the RPE into the media by avoiding damage to Bruch's membrane. The RPE cell solution was transferred to a 50 ml flask (Falcon, Wiesbaden, Germany) containing 20 ml of DMEM (Biochrom) supplemented with 20% FCS (Biochrom) and maintained at 37° C. and 5% carbon dioxide. […] After having grown to confluency (100%), primary RPE cells were subcultured and maintained in DMEM (Biochrom) supplemented with 10% FCS (Biochrom) at 37° C. and 5% carbon dioxide. Primary RPE of passage 3-6 and ARPE-19 cells were used for experiments.
For exposure of dyes RPE and ARPE-19 cells were kept for 24 hours under serum free conditions. After washing cells three times with PBS, cells were incubated for 10 minutes with 300 μl of BSS plus containing 0.2% or 0.02% of dye, respectively. […] The dye was then removed by carefully rinsing cells with BSS plus three times. After 24 hours incubation with serum containing media the cell proliferation assay was performed. […]
The tetrazolium dye-reduction assay (MTT; 3-[4,5-dimethylthiazol-2-yl]-2,5-diphenyl tetrazolium bromide;) was used to determine cell survival rate. […] Absorption was measured by a scanning multiwell spectrophotometer at 550 nm (Molecular Probes, Garching, Germany). […]

Row | Molecule | staining effect in removed lens capsule material [1] | staining of ERM [2] | staining of the lens capsule in porcine eyes [3] | position of the long wavelength maximum, influence of dye concentration [4] | cell viability, nuclei of nonviable cells labeled with propidium iodide [5] | toxicity of 0.02% in comparison to the 0.2% dye solution [5] | cell viability, nuclei of nonviable cells labeled with propidium iodide [6] | toxicity of 0.02% in comparison to the 0.2% dye solution [6] | staining effect of the vitreous ([7]; dye concentration 0.2%) | staining effect of the vitreous ([7]; dye concentration 2.0%) | cell survival of ARPE-19 cells (MTT) [8] | cell survival of primary RPE cells (MTT) [9]
1 | CCN(Cc1cccc(S(=O)(=O)O)c1)c1ccc(C(=C2C=CC(=[N+](CC)Cc3cccc(S(=O)(=O)O)c3)C=C2)c2ccc(S(=O)(=O)O)cc2)cc1.[Na+].[Na+] [Light green SF] | did not stain lens capsule sufficiently | weak staining | weak staining effects | not influenced by the dye concentration | significantly affect cell viability | far less toxic | significantly affect cell viability | far less toxic | strong | strong | no significant impact on cell survival | no influence on cell survival
2 | Chicago blue | – | – | stained well | not influenced by the dye concentration | significantly affect cell viability | – | significantly affect cell viability | – | weak | strong | no significant impact on cell survival | no influence on cell survival
3 | Copperphtalocyanine-3,4′,4″,4′″-tetrasulphonic acid tetrasodium salt [E68] | – | – | stained well | – | did not affect cell survival | – | did not affect cell survival | – | weak | strong | – | –
